Experimental data from patent US12037350B2, “Compositions and methods for the prevention and/or treatment of mitochondrial disease, including Friedreich's ataxia” (Stealth BioTherapeutics Inc., priority 2020, dated 2024).
Entries after “also recorded” stand apart in the source; their conditions may differ.

How the values were obtained:
[1] = tested on: HepG2 human hepatocarcinoma cells; experiment: Rotenone ATP Assay (Complex I by-pass assay); assay type: cell-based
Procedure: Example 13: Rotenone ATP Assay (a Complex I by-Pass Assay)
This assay has been adapted from Haefeli R H, Erb M, Gemperli A C, Robay D, Courdier Fruh I, et al. (2011) NQO1-Dependent Redox Cycling of Idebenone: Effects on Cellular Redox Potential and Energy Levels. PLoS ONE 6(3): e17963. HepG2 human hepatocarcinoma cells are co-incubated with the electron transport chain complex I toxin rotenone +/− compounds of interest and the corresponding effect on ATP synthesis is measured with a bioluminescent substrate.
The stock solutions of the test articles (See Table 1, below for a list of the test articles examined using this assay) were prepared in dimethyl sulfoxide (DMSO at 10 mM). Working stock solutions were prepared on the day of the experiment in glucose free, serum free Dulbecco's modified Eagles medium (DMEM) supplemented with 50 micromolar rotenone.
In brief, HepG2 cells were plated at 25,000 cells per well in low glucose (1 gram/Liter) DMEM medium+10% fetal calf serum and incubated for 24 hours. The following day, the media was decanted and subsequently replaced with glucose free/serum free DMEM which has been supplemented with 50 micromolar rotenone and compound of interest. Serial dilutions of compound were prepared in 3× dilutions beginning at 25 micromolar. The cells were incubated for 60 minutes in a humidified tissue culture incubator. Following incubation, ATP levels were quantified via bioluminescent assay (Promega […] Glo Assay kit) and readings were captured on a standard microplate reader.
ATP bioluminescence is plotted versus the log of compound of interest and data are used to generate EC50 values. Curve fitting is performed using a sigmoidal dose response curve fit function (GraphPad Prism software).
EC50 values were derived from seven-point dose response curves performed on n=3 technical replicates per dose. Robustness of curve fit was assessed as a quality control measure, with an R squared value of at least 0.80 being required for a successful curve fit. Compounds of interest showing an increase in ATP bioluminescence relative to vehicle control were verified in an independent biological replicate of n=3 technical replicates per dose.
This assay is a direct measure of the ability of compounds of interest to restore ATP production under conditions of inhibition of Complex I of the mitochondrial electron transport chain. As the majority of ATP produced via the electron transport chain is thought to derive from Complex I activity, significant impairment in Complex I function has dire biological consequences. Of note, Complex I mutations are thought to drive pathophysiology in multiple mitochondrial diseases, including Leigh syndrome and Leber's Hereditary Optic Neuropathy (LHON), while diminished Complex I activity and the resultant attenuation of ATP production has been shown in neurodegenerative diseases, including Friedreich's Ataxia, Parkinson's Disease and Huntington's Disease. In brief, most compounds were tested in the Rotenone Oxygraph Assay instead of this assay but only Idebenone was active amongst Omaveloxolone, Idebenone and Vatiquinone.

[2] = tested on: GM03665 cells (fibroblasts from a subject with Friedreich's ataxia); experiment: RSL-3 Toxicity Assay (RSL-3 Assay); assay type: cell-based, human; conditions: for EC50: Homo sapiens, Fibroblast
Excerpt: Example 14: RSL-3 Toxicity Assay (RSL-3 Assay)
This assay has been adapted from: Hinman, A., Holst, C. R., Latham, J. C., Bruegger, J. J., Ulas, G., McCusker, K. P., Amagata, A., Davis, D., Hoff, K. G., Kahn-Kirby, A. H., Kim, V., Kosaka, Y., Lee, E., Malone, S. A., Mei, J. J., Richards, S. J., Rivera, V., Miller, G., Trimmer, J. K., Shrader, W. D., “Vitamin E hydroquinone is an endogenous regulator of ferroptosis via redox control of 15-lipoxygenase”, (2018) PLoS ONE 13(8): e0201369.
In brief, GM03665 cells (Coriell Institute) were seeded in 96-well plates (Sarstedt) in DMEM cell culture media containing 10% Fetal Bovine serum and 1% Penicillin-Streptomycin (Pen-Strep) antibiotic mix at the amount of 2×10^4/mL (100 μL or 2×10^3 cells per well). Cells were left to rest overnight at 37° C. in a humidified atmosphere with 5% CO2 to allow attachment of the cells to the culture plate. Test compounds were prepared as DMSO stocks (10 mM) and were serially diluted in cell culture media to obtain 2× working solutions. Cell media was discarded and replaced by 50 μL of test compound solutions or cell media with vehicle for control wells. Within 15 minutes, 2× working solution (4 μM) of 1S,3R-RSL-3 (CAS #1219810-16-8, Sigma-Aldrich) (diluted from 5 mM DMSO stock in cell culture media) was added. Final reaction volume was 100 μL and final DMSO concentration in reaction was kept below 0.2% (v/v) and equal in all wells. Final RSL-3 concentration was 2 μM and test compound final concentrations in reaction were up to 1000 nM. After 24 hours of incubation cell viability was assessed by MTT test. MTT (Sigma-Aldrich) solution 1 mg/mL in IX PBS (pH=7.4) was prepared 1 hour before the assay and filtered through Filtropur S 0.2 filters (Sarstedt). Cell media with test compounds was discarded and 100 μL of MTT solution was added to cells. The plates were incubated for 2 hours at +37° C. Thereafter, the MTT solution was removed and 100 μL of isopropanol was added to dissolve sediment. Absorption at 570 and 650 nm was measured using Hidex Sense microplate reader.
Compounds A and B and idebenone were not examined in this assay. The data presented in Table 1 indicates omaveloxolone was not active in this assay but that vatiquinone was active.
Discussion—Both BSO and RSL-3 are frequently utilized to induce the regulated cell death pathway known as ferroptosis. Ferroptosis is thought to require the joint activity of iron catalyzed oxidative stress and lipid peroxidation and has been described in cell and animal models of multiple neurodegenerative diseases, including Friedreich's Ataxia, Huntington Disease, Parkinson Disease and Alzheimer's Disease. […] Of note, the results for Compounds C-I and K were favorable with respect to inhibition of ferroptotic cell death when either BSO or RSL3 were used as initiating stimulus, differentiating these compounds from omaveloxolone and idebenone.

HepG2 cells = experiment: Rotenone Oxygraph Assay (high-resolution respirometry of intact HepG2 cells); assay type: cell-based, human; conditions: for activation at 10 µM: Homo sapiens
Procedure: Example 15: Rotenone Oxygraph Assay (High-Resolution Respirometry of Intact HepG2 Cells)
The Oxygraph-2k (O2k, OROBOROS INSTRUMENTS, Austria) was used for measurements of respiration of intact cells. The respirometry was performed in Dulbecco's Modified Eagle Medium (DMEM) high glucose without supplements. All experiments were performed at 37° C.
HepG2 cells (ATCC collection code HB-8065™) were cultured in 10 cm^2 culture dishes in DMEM high glucose medium supplemented with 10% fetal bovine serum (FBS) and 100 units/mL penicillin and 100 μg/mL streptomycin until approximately 90% confluence was reached. Immediately prior to performing the respirometric assay, the cells were washed with media without FBS, trypsinized and resuspended in DMEM high glucose without FBS.
The final concentration of intact cells in the O2k-chamber was 0.5-10^6/mL. After stabilization of respiration, the Complex I inhibitor, rotenone, at 1 μM final concentration was added to inhibit electron flux via Complex I. Then, compound to be tested was added at 10 μM final concentration, and the change in respiration rate of intact cells was monitored. […]

[3] = GM03665 cells, RSL-3 2 μM, 24 hours, MTT
[4] = intact HepG2 cells, rotenone 1 μM, compound 10 μM, increase in respiration rate

Structure (SMILES)	Complex I by-pass activity in Rotenone ATP Assay (in words) [1]	EC50 ([1]; Homo sapiens, 1 h, HepG2, 50 micromolar rotenone, 60 minutes, ATP bioluminescence) [µM]	EC50 [2, 3] [µM]	Complex I by-pass activity in Rotenone Oxygraph Assay (in words) (HepG2 cells)	activation at 10 µM (HepG2 cells; [4]) [%]	protection against RSL-3 toxicity (in words) [2]	ATP Rotenone Assay EC50 ([1]; HepG2, 50 micromolar rotenone, 60 minutes, ATP bioluminescence)	RSL-3 Assay EC50 [2, 3]	Rotenone Oxygraph Assay % Increase (HepG2 cells; [4])
COC1=C(OC)C(=O)C(CCCCCCCCCC(F)(F)F)=C(C)C1=O [Compound C, 2,3-dimethoxy-5-methyl-6-(10,10,10-trifluorodecyl)cyclohexa-2,5-diene-1,4-dione]	effective in rescuing cells; also recorded: comparable to that of Idebenone	1.44	0.11	effective in rescuing cells	63.9	–	–	–	–
COC1=C(OC)C(=O)C(CCCCF)=C(C)C1=O [Compound J, 2-(4-fluorobutyl)-5,6-dimethoxy-3-methylcyclohexa-2,5-diene-1,4-dione]	not that effective	–	> 1	not that effective; also recorded: least active	21.8	essentially inactive	–	–	–
CC1(C)CC[C@]2(NC(=O)C(C)(F)F)CC[C@]3(C)[C@H](C(=O)C=C4[C@@]5(C)C=C(C#N)C(=O)C(C)(C)[C@@H]5CC[C@]43C)[C@@H]2C1 [Omaveloxolone, reference compound]	inactive	–	–	inactive	–	not active	Inactive	Inactive	Inactive
